Measurements: patent publication US12304910B2, “Janus kinase (JAK) family inhibitor, preparation of same, and applications thereof” (JIANGSU VCARE PHARMATECH CO., LTD., priority 2019, dated 2025)

Tests used:
[1] = molecular target: JAK1 (Homo sapiens, UniProt P23458); experiment: Kinase activity test (γ33P-ATP isotopic method), JAK1; format: biochemical
Experimental: This experiment adopted a γ^33p-ATP isotopic test method to test the inhibitory effect of a compound on kinases JAK1, JAK2, JAK3 and TYK2, and obtained a half inhibitory concentration IC50 of the compound for inhibiting activity of the kinase.
20 mM 4-hydroxyethylpiperazine ethanesulfonic acid buffer (Hepes, pH 7.5), 10 mM magnesium chloride (MgCl2), 1 mM ethylene glycol diethyl ether diamine tetraacetic acid (EGTA), 0.02% dodecyl polyethylene glycol ether (Brij35), 0.02 mg/ml bovine serum albumin (BSA), 0.1 mM sodium vanadate (Na3VO4), 2 mM dithiothreitol (DTT), and 1% dimethylsulfoxide (DMSO).
A compound is dissolved with 100% DMSO to a specific concentration, and then subjected to gradient dilution by an automatic sampling device to obtain the samples to be tested with different concentrations (DMSO solutions).
3.1 diluting the reaction substrate with the basic reaction buffer;
3.2 adding the kinase into the substrate solution, and gently mixing well;
3.3 adding, by the automatic sampling system, the 100% DMSO diluted compounds with different concentrations into the kinase solution, and incubating for 20 min at room temperature; and
3.4 adding ^33p-ATP (10 μM, 10 μCi/μl) at room temperature to initiate the kinase reaction for a duration of 2 h.
The unreacted ATP and the reaction-generated […] in the reaction were removed by an ion exchange filtering system, and then the amount of radioactivity of ^33p isotope in the substrate was detected.
According to the amount of radioactivity, the kinase activities in the systems added with the inhibitors of different concentrations were calculated, to obtain the inhibitors' effects of the compounds of different concentrations on the kinase activity; and fitting was performed with graphpad prism to obtain the inhibitory IC50 values of the compounds.

[2] = tested on: DSS induced mouse ulcerative colitis model; experiment: Efficacy test in DSS induced mouse ulcerative colitis model; format: in vivo
Source text: Mice of 6-7 weeks old were randomly grouped, 6 mice per group. Purified water was provided ad libitum to the mice in a negative control group, and a 2% solution of dextran sulfate sodium (DSS) was provided ad libitum to the mice in other groups, for 7 consecutive days. During the modeling, medication was given according to the groups, once a day for 7 days (the treatment groups and the mouse numbers can be adjusted according to the specific situation). Within 8-10 days later, the DSS-containing water was replaced with purified water, provided ad libitum to the mice. The normal administration continued for 3 days.
From the first day of administration, the general conditions such as metal state, eating, drinking and activities of the mice were respectively observed every day, the mice were weighed every day, and the animal stools were collected, evaluated for their traits and subjected to the occult blood test. The disease activity index (DAI) of experimental animals within 1-10 days were comprehensively assessed.
Scoring was performed according to the above-mentioned standards. The disease activity index (DAI) of each mouse was obtained by summing the scores of weight loss, stool trait and occult blood condition, to evaluate the disease activity. DAI=(score of weight loss+score of stool trait+score of bloody stool)/3, ranging from 0-4.
The experimental data was processed statistically, and the data are all expressed as mean±SD or mean±SME. The SPSS13.0 software was used for statistical analysis, and the differences among the groups were compared with t test (equal variance) or t′ test (unequal variance).

[3] = tested on: DNBS induced rat Crohn's disease model; experiment: Therapeutic activity in DNBS induced rat Crohn's disease model; format: in vivo; set-up: rat colon ulcer area: unit not given beside the values; details: for colon weight-length ratio / rat colon ulcer area: 7 days, mean±SD; for colon weight-length ratio: colon weight (g)/length (cm) ratio×100, model group G2 14.6±5.1; for rat colon ulcer area: model group G2 1.54±2.00
Experimental: Male wistar rats of 4-5 weeks old were adaptively fed for 5 days, and two days before the experiment, randomly divided into 6 groups:
Blank control group: G1 (Normal), 4 normal rats were selected and only given with 30% ethanol, 10 mL/kg.
0.5 mL of 50 mg/mL DNBS (DNBS dissolved in 30% ethanol) was injected into the colon of rats to induce enteritis in rats, for 40 rats in total. Eight of them were selected as model group G2 (Model), and the remaining 32 rats were administrated.
Administration group: the rats with DNBS induced enteritis were administered with ABT494 and the compound of Example 2 respectively and divided into G3-G6 groups, 8 rats/group. G3: ABT494, 10 mg/kg-QD; G4: Example 2, 0.3 mg/kg-BID; G5: Example 2, 1 mg/kg-BID; and G6: Example 2, 3 mg/kg-BID.
The rats were fasted, but fed with water for 48 hours, and a 5% glucose salt solution (10 mL/kg) was used as an energy supplement for experimental animals during the fasting period, once a day. On the day of experimental modeling, the fasting rats were anesthetized with Choutet (25 mg/kg), and then 0.5 mL of 50 mg/mL DNBS was injected from the anus to left colic flexure of the rat (about 8 cm to the anus) to induce rat enteritis. All rats were kept in a […] for 15 min until they were awaken, to prevent the backflow of DNBS. From the day of the experimental modeling, medication was given for 7 days.
After the DNBS modeling, the weights of the animals were measured and recorded every day, the daily activities of the animals were observed, and the abnormalities were recorded. During the experiment, the stool state of the rats was scored every day. On day 7, the rats were anesthetized with isoflurane (3-5%), blood was taken from the orbit, and the serum was separated and stored at −80° C. All animals were euthanized by cervical vertebra dis location after suffocation from excessive CO2 inhalation. The abdomen was cut, the colorectum was take out and longitudinally dissected, and the stool trait in the colorectum was scored. The colorectum was thoroughly rinsed with ice-cold PBS and then the ulcer surface was observed. The length and weight and ulcer area of the colon were recorded, the weight-length ratio (colon weight (g)/length (cm) ratio×100) was calculated, and the overall picture was taken. All intestinal tissue was longitudinally divided into two parts, where one part was fixed with 4% neutral […] and embedded with paraffin, and the rest colon sample was cryopreserved at −80° C.
Excel and Graphapad software were used for statistical analysis, and the results were expressed as mean±SD.

Chain of JAK1 (P23458 whole entry): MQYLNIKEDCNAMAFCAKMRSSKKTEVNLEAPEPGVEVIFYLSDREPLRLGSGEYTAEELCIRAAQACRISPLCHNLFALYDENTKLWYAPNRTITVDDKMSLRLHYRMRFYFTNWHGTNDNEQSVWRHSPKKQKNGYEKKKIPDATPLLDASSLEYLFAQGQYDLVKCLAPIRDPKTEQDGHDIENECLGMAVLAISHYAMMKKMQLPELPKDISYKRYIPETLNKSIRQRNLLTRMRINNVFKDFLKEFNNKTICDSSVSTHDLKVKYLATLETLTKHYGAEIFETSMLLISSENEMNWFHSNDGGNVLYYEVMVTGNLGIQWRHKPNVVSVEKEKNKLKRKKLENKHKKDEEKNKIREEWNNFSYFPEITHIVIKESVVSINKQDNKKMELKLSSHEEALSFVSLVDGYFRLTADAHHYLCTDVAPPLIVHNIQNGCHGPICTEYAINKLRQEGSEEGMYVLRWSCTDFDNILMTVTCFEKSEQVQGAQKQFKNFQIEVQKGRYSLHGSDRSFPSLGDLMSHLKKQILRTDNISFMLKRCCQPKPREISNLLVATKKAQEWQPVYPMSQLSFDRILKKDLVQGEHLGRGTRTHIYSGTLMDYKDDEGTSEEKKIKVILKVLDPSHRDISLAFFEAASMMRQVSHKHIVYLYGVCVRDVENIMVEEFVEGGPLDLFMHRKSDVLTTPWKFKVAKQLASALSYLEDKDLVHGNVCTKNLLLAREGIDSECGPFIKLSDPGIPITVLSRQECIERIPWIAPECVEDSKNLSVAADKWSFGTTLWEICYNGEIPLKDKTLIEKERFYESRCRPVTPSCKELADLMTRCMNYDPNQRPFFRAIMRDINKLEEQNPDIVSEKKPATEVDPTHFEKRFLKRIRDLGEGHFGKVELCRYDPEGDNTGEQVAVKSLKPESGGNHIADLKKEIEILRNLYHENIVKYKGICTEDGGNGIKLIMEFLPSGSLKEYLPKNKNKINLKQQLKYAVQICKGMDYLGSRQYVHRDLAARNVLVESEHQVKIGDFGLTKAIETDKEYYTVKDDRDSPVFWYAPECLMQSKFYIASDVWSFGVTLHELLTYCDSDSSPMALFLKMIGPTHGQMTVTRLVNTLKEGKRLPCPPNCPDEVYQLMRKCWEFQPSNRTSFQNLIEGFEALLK

Compound: NC(=O)c1cnc2[nH]ccc2c1NN1CCC[C@H](C(=O)NCC(F)F)C1 [Example 2, (S)-4-(3-(2,2-difluoroethylcarbamoyl)piperidine-1-amino)-1H-7-azaindole-5-carboxamide]
- IC50 ([1]; 33P-ATP 10 μM, 2 h reaction): 150 pM
- activity in inhibiting the JAK1 kinase compared with Tofacitinib (in words) ([1]; conclusion from Table 1): higher activity in inhibiting the JAK1 kinase than the positive drug control Tofacitinib
- DAI score on day 8 ([2]; 5 mg/kg group, once a day, mouse DSS model, DAI range 0-4): 1.5
- effect on DSS induced enteritis in mice (in words) ([2]; relatively low dose): significant effect in inhibiting the DSS induced enteritis in mice
- colon weight-length ratio ([3]; G4, 0.3 mg/kg-BID): 10.5±3.9
- rat colon ulcer area ([3]; G4, 0.3 mg/kg-BID): 0.83±1.00
- colon weight-length ratio ([3]; G5, 1 mg/kg-BID): 10.0±1.9
- rat colon ulcer area ([3]; G5, 1 mg/kg-BID): 0.65±1.05
- colon weight-length ratio ([3]; G6, 3 mg/kg-BID): 10.5±2.0
- rat colon ulcer area ([3]; G6, 3 mg/kg-BID): 0.76±1.21
- effect on DNBS induced enteritis of the rats (in words) ([3]; relatively low dose): significant effect in inhibiting the DNBS induced enteritis of the rats
